Data reported in ChEMBL document CHEMBL5505995, “Discovery of novel urea derivatives as ferroptosis and autophagy inducer for human colon cancer treatment” (Eur J Med Chem, 2024).
The source made the active and inactive calls. The calls are words filed in the database; no cut-off is given here.

Assays:
HT-29 [1] = test: Induction of necrosis in human HT-29 cells incubated for 48 hrs by MTT assay; type: functional, cell-based
HT-29 [2] = test: Induction of autophagy in human HT-29 cells assessed as upregulation of ATG7 protein expression incubated for 48 hrs by Western blotting analysis; type: functional, cell-based
HT-29 [3] = test: Induction of autophagy in human HT-29 cells assessed as upregulation of ATG5 protein expression incubated for 48 hrs by Western blotting analysis; type: functional, cell-based
HT-29 [4] = test: Induction of ferroptosis in human HT-29 cells assessed as increase in mitochondrial membrane density incubated for 48 hrs in presence of ferroptosis inhibitor deferoxamine by transmission electron microscopic analysis; type: functional, cell-based
HT-29 [5] = test: Induction of ferroptosis in human HT-29 cells assessed as increase in intracellular malondialdehyde accumulation incubated for 48 hrs in presence of ferroptosis inhibitor CPX; type: functional, cell-based
HT-29 [6] = test: Induction of ferroptosis in human HT-29 cells assessed as increase in intracellular iron level incubated for 48 hrs in presence of ferroptosis inhibitor deferoxamine; type: functional, cell-based
HT-29 [7] = test: Induction of ferroptosis in human HT-29 cells assessed as decrease in GPx level incubated for 48 hrs in presence of ferroptosis inhibitor CPX; type: functional, cell-based
HT-29 [8] = test: Induction of ferroptosis in human HT-29 cells assessed as increase in intracellular malondialdehyde accumulation incubated for 48 hrs in presence of ROS scavenger NAC; type: functional, cell-based
HT-29 [9] = test: Induction of cell cycle arrest in human HT-29 cells assessed as downregulation of Cyclin B1 expression at 0.5 to 4 uM incubated for 48 hrs by Western blotting analysis; type: functional, cell-based; details: dose 0.5-4 µM
HT-29 [10] = test: Induction of ferroptosis in human HT-29 cells assessed as decrease in GPx level at 1 to 4 uM incubated for 48 hrs; type: functional, cell-based; details: dose 1-4 µM
HT-29 [11] = test: Antiproliferative activity against human HT-29 cells assessed as inhibition of cell growth incubated for 48 hrs by MTT assay; type: functional, cell-based; details: HT-29, 48 h
HT-29 [12] = test: Induction of autophagy in human HT-29 cells assessed as increase in MDC positive cells incubated for 48 hrs in presence of ROS scavenger NAC by MDC staining based flow cytometric analysis; type: functional, cell-based
HT-29 [13] = test: Antiproliferative activity against human HT-29 cells assessed as inhibition of cell growth incubated for 48 hrs in presence of ROS scavenger NAC by MTT assay; type: functional, cell-based
HT-29 [14] = test: Induction of ferroptosis in human HT-29 cells assessed as decrease in intracellular GSH level incubated for 48 hrs in presence of ferroptosis inhibitor CPX; type: functional, cell-based
HT-29 [15] = test: Induction of ferroptosis in human HT-29 cells assessed as increase in intracellular iron level incubated for 48 hrs in presence of autophagy inhibitor 3-methyladenine; type: functional, cell-based
HT-29 [16] = test: Induction of cell cycle arrest in human HT-29 cells assessed as accumulation of cells at G2/M phase incubated for 48 hrs by propidium iodide staining based flow cytometric analysis; type: functional
HT-29 [17] = test: Induction of ferroptosis in human HT-29 cells assessed as increase in intracellular iron level incubated for 48 hrs; type: functional, cell-based
HepG2 = test: Antiproliferative activity against human HepG2 cells assessed as inhibition of cell growth incubated for 48 hrs by MTT assay; type: functional, cell-based; details: HepG2, 48 h
HT-29 [18] = test: Induction of cell death in human HT-29 cells incubated for 48 hrs in presence of ferroptosis inhibitor deferoxamine by MTT assay; type: functional, cell-based
HT-29 [19] = test: Induction of ferroptosis in human HT-29 cells assessed as decrease in intracellular GSH level incubated for 48 hrs in presence of ferroptosis inhibitor deferoxamine; type: functional, cell-based
HeLa = test: Antiproliferative activity against human HeLa cells assessed as inhibition of cell growth incubated for 48 hrs by MTT assay; type: functional, cell-based
HT-29 [20] = test: Induction of ferroptosis in human HT-29 cells incubated for 48 hrs by MTT assay; type: functional, cell-based
HT-29 [21] = test: Induction of ferroptosis in human HT-29 cells assessed as decrease in intracellular GSH level incubated for 48 hrs in presence of autophagy inhibitor 3-methyladenine; type: functional, cell-based
HT-29 [22] = test: Induction of apoptosis in human HT-29 cells at 1 to 4 uM incubated for 48 hrs by Annexin V-FITC/PI staining based flow cytometry; type: functional, cell-based; details: dose 1-4 µM
HT-29 [23] = test: Induction of ferroptosis in human HT-29 cells assessed as increase in intracellular lipid peroxidation accumulation incubated for 48 hrs in presence of ferroptosis inhibitor CPX by C11 BODIPY 581/591 staining based flow cytometry; type: functional, cell-based
HT-29 [24] = test: Antiproliferative activity against human HT-29 cells assessed as inhibition of cell growth at 1 to 10 uM incubated for 48 hrs by MTT assay; type: functional, cell-based; details: dose 1-10 µM
HT-29 [25] = test: Induction of ferroptosis in human HT-29 cells assessed as increase in intracellular lipid peroxidation accumulation incubated for 48 hrs in presence of ROS scavenger NAC by C11 BODIPY 581/591 staining based flow cytometry; type: functional, cell-based
K562 = test: Antiproliferative activity against human K562 cells assessed as inhibition of cell growth incubated for 48 hrs by MTT assay; type: functional, cell-based; details: K562, 48 h
HT-29 [26] = test: Induction of ferroptosis in human HT-29 cells assessed as increase in mitochondrial membrane density incubated for 48 hrs by transmission electron microscopic analysis; type: functional, cell-based
HT-29 [27] = test: Induction of ferroptosis in human HT-29 cells assessed as mitochondrial morphological change incubated for 48 hrs by transmission electron microscopic analysis; type: functional, cell-based
HT-29 [28] = test: Induction of autophagy in human HT-29 cells assessed as increase in MDC positive cells incubated for 48 hrs in presence of ferroptosis inhibitor deferoxamine by MDC staining based flow cytometric analysis; type: functional, cell-based
HT-29 [29] = test: Induction of ferroptosis in human HT-29 cells assessed as mitochondrial morphological change incubated for 48 hrs in presence of ferroptosis inhibitor deferoxamine by transmission electron microscopic analysis; type: functional, cell-based
HT-29 [30] = test: Induction of ferroptosis in human HT-29 cells assessed as increase in intracellular malondialdehyde accumulation incubated for 48 hrs in presence of autophagy inhibitor 3-methyladenine; type: functional, cell-based
HT-29 [31] = test: Induction of ferroptosis in human HT-29 cells assessed as increase in intracellular lipid peroxidation accumulation incubated for 48 hrs in presence of autophagy inhibitor 3-methyladenine by C11 BODIPY 581/591 staining based flow cytometry; type: functional, cell-based
HT-29 [32] = test: Induction of ferroptosis in human HT-29 cells assessed as increase in intracellular malondialdehyde accumulation incubated for 48 hrs; type: functional, cell-based
Cell membrane = test: Induction of mitochondrial membrane potential loss in human HT-29 cells assessed as decrease in orange-red fluorescence incubated for 48 hrs by JC-1 staining based flow cytometry; type: cell membranes
HT-29 [33] = test: Induction of ferroptosis in human HT-29 cells assessed as increase in intracellular malondialdehyde accumulation incubated for 48 hrs in presence of ferroptosis inhibitor deferoxamine; type: functional, cell-based
HT-29 [34] = test: Induction of ferroptosis in human HT-29 cells assessed as increase in intracellular lipid peroxidation accumulation incubated for 48 hrs in presence of ferroptosis inhibitor deferoxamine by C11 BODIPY 581/591 staining based flow cytometry; type: functional, cell-based
HT-29 [35] = test: Induction of ferroptosis in human HT-29 cells assessed as decrease in GPx level incubated for 48 hrs in presence of autophagy inhibitor 3-methyladenine; type: functional, cell-based
HT-29 [36] = test: Induction of ferroptosis in human HT-29 cells assessed as increase in intracellular iron level incubated for 48 hrs in presence of ROS scavenger NAC; type: functional, cell-based

## COc1ccc2c(c1)NCCN2C(=O)NCCCl
HT-29 [1]
  Activity: Active
HT-29 [2]
  Activity: Dose-Dependent Effect
HT-29 [3]
  Activity: Dose-Dependent Effect
HT-29 [4]
  Activity: inactive
HT-29 [5]
  Activity: inactive
HT-29 [6]
  Activity: inactive
HT-29 [7]
  Activity: inactive
HT-29 [8]
  Activity: inactive
HT-29 [9]
  Activity: Active
HT-29 [10]
  Activity: Active
HT-29 [11]
  IC50: 1.97 µM
HT-29 [12]
  Activity: inactive
HT-29 [13]
  Activity: inactive
HT-29 [14]
  Activity: inactive
HT-29 [15]
  Activity: Active
HT-29 [16]
  Activity: Dose-Dependent Effect
HT-29 [17]
  Activity: Dose-Dependent Effect
HepG2
  IC50: 13.8 µM
HT-29 [18]
  Activity: inactive
HT-29 [19]
  Activity: inactive
HeLa
  IC50: 6.18 µM
HT-29 [20]
  Activity: Active
HT-29 [21]
  Activity: Active
HT-29 [22]
  Activity: inactive
HT-29 [23]
  Activity: inactive
HT-29 [24]
  Activity: Active
HT-29 [25]
  Activity: inactive
K562
  IC50: 4.92 µM
HT-29 [26]
  Activity: Active
HT-29 [27]
  Activity: Active
HT-29 [28]
  Activity: Active
HT-29 [29]
  Activity: inactive
HT-29 [30]
  Activity: Active
HT-29 [31]
  Activity: Active
HT-29 [32]
  Activity: Dose-Dependent Effect
Cell membrane
  Activity: Dose-Dependent Effect
HT-29 [33]
  Activity: inactive
HT-29 [34]
  Activity: inactive
HT-29 [35]
  Activity: Active
HT-29 [36]
  Activity: inactive
